PubChem BioAssay (NCI)
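Dose response: 5 concentrations. Exposure: 48 h. Format: 96-well plates. Endpoint: linear interpolation; highest concentration if not reached. Abbreviation: GI50, concentration required for 50% inhibition of growth. The concentration for full growth arrest is given as TGI.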

Key:
Test in all cases: inhibition of tumour cell growth, NCI panel, 48 h
786-0 renal = test system: 786-0 renal
A498 renal = test system: A498 renal
A549 NSCLC = test system: A549 NSCLC
ACHN renal = test system: ACHN renal
BT-549 breast = test system: BT-549 breast
CAKI-1 renal = test system: CAKI-1 renal
CCRF-CEM leukemia = test system: CCRF-CEM leukemia
COLO 205 colon = test system: COLO 205 colon
DU-145 prostate = test system: DU-145 prostate
EKVX NSCLC = test system: EKVX NSCLC
HCC-2998 colon = test system: HCC-2998 colon
HCT-116 colon = test system: HCT-116 colon
HCT-15 colon = test system: HCT-15 colon
HL-60(TB) leukemia = test system: HL-60(TB) leukemia
HOP-62 NSCLC = test system: HOP-62 NSCLC
HOP-92 NSCLC = test system: HOP-92 NSCLC
HS 578T breast = test system: HS 578T breast
HT29 colon = test system: HT29 colon
IGROV1 ovarian = test system: IGROV1 ovarian
K-562 leukemia = test system: K-562 leukemia
KM12 colon = test system: KM12 colon
LOX IMVI melanoma = test system: LOX IMVI melanoma
M14 melanoma = test system: M14 melanoma
MALME-3M melanoma = test system: MALME-3M melanoma
MCF7 breast = test system: MCF7 breast
MDA-MB-231 breast = test system: MDA-MB-231 breast
MDA-MB-435 = test system: MDA-MB-435
MOLT-4 leukemia = test system: MOLT-4 leukemia
NCI-H226 lung = test system: NCI-H226 lung

C[C@H](Nc1cc(Cl)nc2c1cnn2[C@@H]1O[C@H](COP(=O)(O)CP(=O)(O)O)[C@@H](O)[C@H]1O)c1ccccc1F showed a GI50 (786-0 renal) greater than 100 µM, a TGI (786-0 renal) greater than 100 µM and a GI50 (A498 renal) of 32.3 µM. It also gave a TGI (A498 renal) greater than 100 µM, a GI50 (A549 NSCLC) greater than 100 µM and a TGI (A549 NSCLC) greater than 100 µM. For the same compound, the GI50 (ACHN renal) was greater than 100 µM, the TGI (ACHN renal) was greater than 100 µM and the GI50 (BT-549 breast) was greater than 100 µM. The TGI (BT-549 breast) was greater than 100 µM, the GI50 (CAKI-1 renal) was greater than 100 µM and the TGI (CAKI-1 renal) was greater than 100 µM. It also gave a GI50 (CCRF-CEM leukemia) greater than 100 µM, a TGI (CCRF-CEM leukemia) greater than 100 µM and a GI50 (COLO 205 colon) greater than 100 µM. It also gave a TGI (COLO 205 colon) greater than 100 µM, a GI50 (DU-145 prostate) greater than 100 µM and a TGI (DU-145 prostate) greater than 100 µM. The GI50 (EKVX NSCLC) was greater than 100 µM, the TGI (EKVX NSCLC) was greater than 100 µM and the GI50 (HCC-2998 colon) was greater than 100 µM. The TGI (HCC-2998 colon) was greater than 100 µM, the GI50 (HCT-116 colon) was greater than 100 µM and the TGI (HCT-116 colon) was greater than 100 µM. It also gave a GI50 (HCT-15 colon) greater than 100 µM, a TGI (HCT-15 colon) greater than 100 µM and a GI50 (HL-60(TB) leukemia) greater than 100 µM. The TGI (HL-60(TB) leukemia) was greater than 100 µM, the GI50 (HOP-62 NSCLC) was greater than 100 µM and the TGI (HOP-62 NSCLC) was greater than 100 µM. For the same compound, the GI50 (HOP-92 NSCLC) was greater than 100 µM, the TGI (HOP-92 NSCLC) was greater than 100 µM and the GI50 (HS 578T breast) was greater than 100 µM. For the same compound, the TGI (HS 578T breast) was greater than 100 µM, the GI50 (HT29 colon) was greater than 100 µM and the TGI (HT29 colon) was greater than 100 µM. The GI50 (IGROV1 ovarian) was greater than 100 µM, the TGI (IGROV1 ovarian) was greater than 100 µM and the GI50 (K-562 leukemia) was greater than 100 µM. The TGI (K-562 leukemia) was greater than 100 µM, the GI50 (KM12 colon) was greater than 100 µM and the TGI (KM12 colon) was greater than 100 µM. It also gave a GI50 (LOX IMVI melanoma) greater than 100 µM, a TGI (LOX IMVI melanoma) greater than 100 µM and a GI50 (M14 melanoma) greater than 100 µM. It also gave a TGI (M14 melanoma) greater than 100 µM, a GI50 (MALME-3M melanoma) greater than 100 µM and a TGI (MALME-3M melanoma) greater than 100 µM. It also gave a GI50 (MCF7 breast) greater than 100 µM, a TGI (MCF7 breast) greater than 100 µM and a GI50 (MDA-MB-231 breast) greater than 100 µM. For the same compound, the TGI (MDA-MB-231 breast) was greater than 100 µM, the GI50 (MDA-MB-435) was greater than 100 µM and the TGI (MDA-MB-435) was greater than 100 µM. For the same compound, the GI50 (MOLT-4 leukemia) was greater than 100 µM, the TGI (MOLT-4 leukemia) was greater than 100 µM and the GI50 (NCI-H226 lung) was greater than 100 µM.
